Several values for one entry are separate records, joined by “and”; a condition that tells them apart may be missing. Equal entries are not always repeated. Where two headings read alike, the source gives them in different places.
Assays:
[1] = Plasma hPTH (1-34) after SC injection or printed patches (water) with ViaDerm in pigs (Example 11); type: in vivo; details: for bioavailability: read-out: % bioavailability cf. to S.C.
Description: Pigs (males, 10-12 kg, Large white) were treated as follows:
Group 1: 10 μg of hPTH (1-34) were injected subcutaneously (S.C.; total 3 pigs)
[…] Printed patches containing 50 μg hPTH (1-34) were placed over the treated area and covered with Tegaderm (3M Health Care, St. Paul, Minn.). Total delivery area=1.4 cm (total 3 pigs).
(§1) […] Printed patches containing 100 μg hPTH (1-34) were placed over the treated area and covered with Tegaderm. Total delivery area=1.4 cm (total 3 pigs).
as §1
hPTH (1-34) was dissolved in water and then printed on the patches. hPTH (1-34) concentrations in pig plasma were measured by an ELISA kit (Immutopics, San Clemente, Calif., USA).

[2] = Plasma hPTH (1-34) from different printed patch formulations in pigs (Example 12); type: in vivo
Description: The experiment was performed as follows: Group 1: Each pig underwent two ViaDerm applications (150 micro-channels/cm^2) on one site on the back. A 100 μg hPTH (1-34) printed patch was placed over the application area and covered with Tegaderm. Total delivery area=1.4 cm (total 3 pigs). Formulation: hPTH (1-34) in water for injection (WFI), pH=6. Group 2: Each pig underwent two ViaDerm applications (150 micro-channels/cm^2) on one site on the back. A 100 μg hPTH (1-34) printed patch was placed over the application area and covered with Tegaderm. Total delivery area=1.4 cm^2 (total 3 pigs). Formulation: hPTH (1-34): Sucrose (1:5.5) in 0.72% acetic acid, pH=4. Group 3: Each pig underwent two ViaDerm applications (150 micro-channels/cm^2) on one site on the back. A 100 μg hPTH (1-34) printed patch was placed over the application area and covered with Tegaderm. Total delivery area=1.4 cm^2 (total 3 pigs). Formulation: hPTH (1-34): Trehalose (1:11) in 0.4% citric acid, pH=4. Group 4: Each pig was injected SC with 0.2 ml (20 μg) of hPTH (1-34) diluted to a 100 μg/ml solution with saline (total 3 pigs).

[3] = Plasma hPTH (1-34) in female adult healthy human volunteers, ViaDerm and printed patches or SC (Example 13); type: in vivo; set-up: AUC (individual subjects): unit not given here; details: for Cmax (individual subjects): women; for Cmax (individual subjects) / AUC (individual subjects) / AUC: 12 h; for AUC / Tmax / Cmax: female, human, plasma
Description: Transdermal drug delivery study of hPTH (1-34) in four female adult healthy human volunteers was performed using ViaDerm and printed patches.
To evaluate the transdermal delivery of hPTH (1-34), printed patches containing 100 μg or 200 μg hPTH (1-34) (FORTEO®, Teriparatide purchased from Ely Lilly, Indianapolis, Ind., USA) were prepared. Patch area was 1.44 cm^2.
ViaDerm parameters: electrode array of 75 or 100 micro-channels/cm^2; ViaDerm was applied two or three times generating micro-channels at a density of 150 or 300 micro-channels/cm^2; Voltage: 290 volts, constant voltage; Burst length: 5000 μsec; Maximal current: 50 mA.
(§2) Each female adult received five treatments of hPTH (1-34) with a minimum of 2 day clearance between treatments. The treatments were as follows: • 1. Three ViaDerm applications (final density of 300 micro-channels/cm^2) on one site of the upper arm. Two printed patches, each containing 100 μg hPTH (1-34), were placed over the application area (each for 6 hours). • 2. Two ViaDerm applications (final density of 150 micro-channels/cm^2) on one site of the upper arm. Two printed patches, each containing 200 μg hPTH (1-34), were placed over the application area. • 3. Three ViaDerm applications (final density of 300 micro-channels/cm^2) on one site of the upper arm. Two printed patches, each containing 200 μg hPTH (1-34), were placed over the application area. • 4. Subcutaneous (SC) injection of 20 μg hPTH (1-34) (FORTEO®, Teriparatide was purchased from Ely Lilly, Indianapolis, Ind., USA). • 5. SC injection of 60 μg hPTH (1-34) (FORTEO®).
(§3) Plasma hPTH (1-34), calcium ions and phosphate ions were determined by Eliza using commercial kits.

[4] = tested on: plasma calcium ions and phosphorous; assay: Plasma calcium ions and phosphorus in women after hPTH (1-34) (Example 13); type: in vivo, human; details: four women, all transdermal and SC treatments
Description: as §2, §3

Amount delivered ([1]; S.C. 10 μg): 10 µg
AUC ([1]; male, Large white, pig, plasma, other: transdermal printed patch on ViaDerm-treated skin, 50 ug, printed patch 50 μg): 0.46 ng·h/mL
Cmax ([1]; male, Large white, pig, plasma, other: transdermal printed patch on ViaDerm-treated skin, 50 ug, printed patch 50 μg (water), ViaDerm, back, read-out: Cmax): ~0.15 ng/mL
AUC ([1]; male, Large white, pig, plasma, other: transdermal printed patch on ViaDerm-treated skin, 100 ug, patch 100 μg): 0.919 ng·h/mL
Cmax ([1]; male, Large white, pig, plasma, other: transdermal printed patch on ViaDerm-treated skin, 100 ug, printed patch 100 μg (water), ViaDerm, back, read-out: Cmax): 0.32 ng/mL
AUC ([1]; male, Large white, pig, plasma, other: transdermal printed patch on ViaDerm-treated skin, 200 ug, patch 200 μg): 1.6 ng·h/mL
Cmax ([1]; male, Large white, pig, plasma, other: transdermal printed patch on ViaDerm-treated skin, 200 ug, printed patch 200 μg (water), ViaDerm, back, read-out: Cmax): ~0.32 ng/mL
AUC ([1]; male, Large white, pig, plasma, sc, 10 ug, S.C. 10 μg): 0.365 ng·h/mL
bioavailability ([1]; male, Large white, pig, plasma, sc, 10 ug, S.C. 10 μg (reference)): 100%
Cmax ([1]; male, Large white, pig, plasma, sc, 10 ug, S.C. 10 μg, neck, read-out: Cmax): 0.374 ng/mL
bioavailability ([1]; male, Large white, pig, plasma, sc, 50 ug, printed patch 50 μg): 25.2%
bioavailability ([1]; male, Large white, pig, plasma, sc, 100 ug, patch 100 μg): 25.2%
bioavailability ([1]; male, Large white, pig, plasma, sc, 200 ug, patch 200 μg): 21.9%
Amount delivered ([1]; patch 100 μg): 225.18 µg
Amount delivered ([1]; patch 200 μg): 43.84 µg
Amount delivered ([1]; printed patch 50 μg): 12.6 µg
Cmax ([1]; printed patch 50 μg (water), ViaDerm, back): 0.136 ng/mL
Cmax ([1]; printed patch 200 μg (water), ViaDerm, back): 0.317 ng/mL
Amount delivered ([2]; S.C. 20 ug): 20 µg
% bio ([2]; S.C. 20 ug (reference)): 100%
AUC ([2]; pig, plasma, sc, S.C. 20 ug): 1.16 ± 0.761 ng·h/mL
Cmax ([2]; pig, plasma, sc, S.C. 20 ug, neck): 1.08 ng/mL
AUC (individual subjects) ([3]; T-1: 300 micro-channels/cm^2, 2 printed patches each 100 μg): 346 and 1340 and 1097 and 1067
Cmax AVG ([3]; T-1: 300 micro-channels/cm^2, 2 printed patches each 100 μg, mean of 4 women): 0.330918 ng/mL
AUC (individual subjects) ([3]; T-2: 150 micro-channels/cm^2, 2 printed patches each 200 μg): 398 and 1498 and 3743 and 2128
Cmax AVG ([3]; T-2: 150 micro-channels/cm^2, 2 printed patches each 200 μg, mean of 4 women): 0.642299 ng/mL
AUC (individual subjects) ([3]; T-3: 300 micro-channels/cm^2, 2 printed patches each 200 μg): 886 and 1251 and 4649 and 1327
Cmax AVG ([3]; T-3: 300 micro-channels/cm^2, 2 printed patches each 200 μg, mean of 4 women): 0.651347 ng/mL
Tmax (individual subjects) ([3]; T-4: SC injection of 20 μg): 6.0 h and 0.3 h and 0.5 h
AUC (individual subjects) ([3]; T-4: SC injection of 20 μg): 172 and 158 and 176
Cmax AVG ([3]; T-4: SC injection of 20 μg, mean of 4 women): 0.029291 ng/mL
Tmax (individual subjects) ([3]; T-5: SC injection of 60 μg): 0.5 h
AUC (individual subjects) ([3]; T-5: SC injection of 60 μg): 84 and 100 and 474 and 399
Cmax AVG ([3]; T-5: SC injection of 60 μg, mean of 4 women): 0.111514 ng/mL
AUC ([3]; 100 ug, T-1: 300 micro-channels/cm^2, 2 printed patches each 100 μg, mean of 4 women, read-out: AUC AVG): 0.963 ng·h/mL
Tmax ([3]; 100 ug, T-1: 300 micro-channels/cm^2, 2 printed patches each 100 μg, read-out: Tmax (individual subjects)): 1 h
Cmax ([3]; other: transdermal printed patch on ViaDerm-treated skin, 100 ug, T-1: 300 micro-channels/cm^2, 2 printed patches each 100 μg, mean of 4 women): 0.331 ng/mL
Tmax ([3]; other: transdermal printed patch on ViaDerm-treated skin, 100 ug, T-1: 300 micro-channels/cm^2, 2 printed patches each 100 μg, mean of 4 women, read-out: Tmax AVG): 1.5 h
AUC ([3]; other: transdermal printed patch on ViaDerm-treated skin, 200 ug, T-2: 150 micro-channels/cm^2, 2 printed patches each 200 μg, mean of 4 women, read-out: AUC AVG): 1.94 ng·h/mL
Cmax ([3]; other: transdermal printed patch on ViaDerm-treated skin, 200 ug, T-2: 150 micro-channels/cm^2, 2 printed patches each 200 μg, mean of 4 women): 0.642 ng/mL
Tmax ([3]; other: transdermal printed patch on ViaDerm-treated skin, 200 ug, T-2: 150 micro-channels/cm^2, 2 printed patches each 200 μg, mean of 4 women, read-out: Tmax AVG): 2.1 h
Tmax ([3]; other: transdermal printed patch on ViaDerm-treated skin, 200 ug, T-2: 150 micro-channels/cm^2, 2 printed patches each 200 μg, read-out: Tmax (individual subjects)): 1.5 h
AUC ([3]; other: transdermal printed patch on ViaDerm-treated skin, 200 ug, T-3: 300 micro-channels/cm^2, 2 printed patches each 200 μg, mean of 4 women, read-out: AUC AVG): 2.03 ng·h/mL
Cmax ([3]; other: transdermal printed patch on ViaDerm-treated skin, 200 ug, T-3: 300 micro-channels/cm^2, 2 printed patches each 200 μg, mean of 4 women): 0.651 ng/mL
Tmax ([3]; other: transdermal printed patch on ViaDerm-treated skin, 200 ug, T-3: 300 micro-channels/cm^2, 2 printed patches each 200 μg, mean of 4 women, read-out: Tmax AVG): 2 h
Tmax ([3]; other: transdermal printed patch on ViaDerm-treated skin, 200 ug, T-3: 300 micro-channels/cm^2, 2 printed patches each 200 μg, read-out: Tmax (individual subjects)): 2.5 h
AUC ([3]; sc, 20 ug, T-4: SC injection of 20 μg, mean of 4 women, read-out: AUC AVG): 0.152 ng·h/mL
AUC ([3]; sc, 20 ug, T-4: SC injection of 20 μg, read-out: AUC (individual subjects)): 0.103 ng·h/mL
Cmax ([3]; sc, 20 ug, T-4: SC injection of 20 μg, mean of 4 women): 0.022 ng/mL
Tmax ([3]; sc, 20 ug, T-4: SC injection of 20 μg, mean of 4 women, read-out: Tmax AVG): 1.8 h
AUC ([3]; sc, 60 ug, T-5: SC injection of 60 μg, mean of 4 women, read-out: AUC AVG): 0.264 ng·h/mL
Cmax ([3]; sc, 60 ug, T-5: SC injection of 60 μg, mean of 4 women): 0.115 ng/mL
Tmax ([3]; sc, 60 ug, T-5: SC injection of 60 μg, mean of 4 women, read-out: Tmax AVG): 0.8 h
Tmax ([3]; sc, 60 ug, T-5: SC injection of 60 μg, read-out: Tmax (individual subjects)): 1 h
SMILES: CC[C@H](C)[C@H](NC(=O)[C@H](CCC(=O)O)NC(=O)[C@H](CO)NC(=O)[C@@H](NC(=O)[C@@H](N)CO)C(C)C)C(=O)N[C@@H](CCC(N)=O)C(=O)N[C@@H](CC(C)C)C(=O)N[C@@H](CCSC)C(=O)N[C@@H](Cc1cnc[nH]1)C(=O)N[C@@H](CC(N)=O)C(=O)N[C@@H](CC(C)C)C(=O)NCC(=O)N[C@@H](CCCCN)C(=O)N[C@@H](Cc1cnc[nH]1)C(=O)N[C@@H](CC(C)C)C(=O)N[C@@H](CC(N)=O)C(=O)N[C@@H](CO)C(=O)N[C@@H](CCSC)C(=O)N[C@@H](CCC(=O)O)C(=O)N[C@@H](CCCN=C(N)N)C(=O)N[C@H](C(=O)N[C@@H](CCC(=O)O)C(=O)N[C@@H](Cc1c[nH]c2ccccc12)C(=O)N[C@@H](CC(C)C)C(=O)N[C@@H](CCCN=C(N)N)C(=O)N[C@@H](CCCCN)C(=O)N[C@@H](CCCCN)C(=O)N[C@@H](CC(C)C)C(=O)N[C@@H](CCC(N)=O)C(=O)N[C@@H](CC(=O)O)C(=O)N[C@H](C(=O)N[C@@H](Cc1cnc[nH]1)C(=O)N[C@@H](CC(N)=O)C(=O)N[C@@H](Cc1ccccc1)C(=O)O)C(C)C)C(C)C [hPTH (1-34)]
Cmax (individual subjects) ([3]; T-1: 300 micro-channels/cm^2, 2 printed patches each 100 μg (dose 200 ug)): 0.094366 ng/mL and 0.394054 ng/mL and 0.437693 ng/mL and 0.39756 ng/mL
Cmax (individual subjects) ([3]; T-2: 150 micro-channels/cm^2, 2 printed patches each 200 μg (dose 400 ug)): 0.072528 ng/mL and 0.463893 ng/mL and 1.293464 ng/mL and 0.739311 ng/mL
Cmax (individual subjects) ([3]; T-3: 300 micro-channels/cm^2, 2 printed patches each 200 μg (dose 400 ug)): 0.296887 ng/mL and 0.534872 ng/mL and 1.304179 ng/mL and 0.46945 ng/mL
Cmax (individual subjects) ([3]; T-4: SC injection of 20 μg): 0.012196 ng/mL and 0.037556 ng/mL and 0.02935 ng/mL and 0.038062 ng/mL
Cmax (individual subjects) ([3]; T-5: SC injection of 60 μg): 0.059209 ng/mL and 0.066482 ng/mL and 0.185324 ng/mL and 0.13504 ng/mL
plasma concentrations of calcium ions [4]: elevation of calcium ions
plasma concentrations of phosphorus [4]: decrease of phosphorous

Reference: patent US7662404B2, “Transdermal delivery system for dried particulate or lyophilized peptides and polypeptides” (TransPharma Medical Ltd., priority 2002, dated 2010)
